From publication PMC10787358 (Science translational medicine, 2023)

What was measured:
[1] = system: SARS-CoV-2 Beta and Delta variants; type: cell-based
SARS-CoV-2 = system: SARS-CoV-2; parameters: species or system hACE2 transgenic mice; details: mouse, in vivo
[2] = system: SARS-CoV-2 WT, Beta, Delta, Omicron BA.2; type: cell-based; details: UDCA 10 μM, ML364 4 μM, MS102 4 μM, 48 h

SMILES: Cc1ccc(S(=O)(=O)Nc2cc(C(F)(F)F)ccc2C(=O)Nc2nc(-c3ccccc3)cs2)cc1 [ML364]
- inhibition of authentic SARS-CoV-2 variants [1]: broad inhibition
- therapeutic effectiveness against SARS-CoV-2 infection (SARS-CoV-2): substantial therapeutic potential

SMILES: Cc1ccc(S(=O)(=O)Nc2ccc(C(F)(F)F)cc2C(=O)Nc2nc(-c3ccc(Br)cc3)cs2)cc1 [MS102]
- inhibition of infection of Calu-3 cells by authentic SARS-CoV-2 (TCID50) [2]: superior activity

SMILES: C[C@H](CCC(=O)O)[C@H]1CC[C@H]2[C@@H]3[C@@H](O)C[C@@H]4C[C@H](O)CC[C@]4(C)[C@H]3CC[C@]12C [UDCA, ursodeoxycholic acid]
- inhibition of infection of Calu-3 cells by authentic SARS-CoV-2 (TCID50) [2]: exhibited efficacy
